Entries after “also recorded” stand apart in the source; their conditions may differ.
Tests used:
MMP-2 = target: T1, MMP-2 (Homo sapiens, UniProt P08253); assay: MMP inhibition assay, MMP-2; type: biochemical
T1 construct: catalytic domains of three human MMPs; purchased Sigma-Aldrich
Summary of the method: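 Catalytic domains of human MMPs were tested with a commercial fluorescence MMP inhibition kit following the manufacturer's protocol. Compounds were assayed at 100 μM.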

HDAC-3 = HDAC-3 (Homo sapiens, UniProt O15379); assay: Human off-target inhibition, HDAC-3; type: biochemical
HDAC-8 = target: T2, HDAC-8 (Homo sapiens, UniProt Q9BY41); assay: Human off-target inhibition, HDAC-8; type: biochemical
T2 sequence (Q9BY41 1-377): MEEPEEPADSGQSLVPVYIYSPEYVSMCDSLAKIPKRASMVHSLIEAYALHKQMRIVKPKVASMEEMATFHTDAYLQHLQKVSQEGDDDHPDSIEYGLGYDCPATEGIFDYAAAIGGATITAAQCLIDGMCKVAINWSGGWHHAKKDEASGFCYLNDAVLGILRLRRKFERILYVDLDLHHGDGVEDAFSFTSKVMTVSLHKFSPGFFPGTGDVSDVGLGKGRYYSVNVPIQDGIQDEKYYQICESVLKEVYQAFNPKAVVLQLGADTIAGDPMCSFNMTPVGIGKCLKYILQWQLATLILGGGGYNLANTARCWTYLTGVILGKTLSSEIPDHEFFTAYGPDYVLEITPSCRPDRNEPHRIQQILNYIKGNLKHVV

COX-1 = COX-1 (Homo sapiens, UniProt P23219); assay: Human off-target inhibition, COX-1; type: biochemical
Experimental: To assess the selectivity of the compounds over human MMPs and on other bacterial collagenases, selected compounds were tested against ColG-CU and ColH-PD from C. histolyticum and ColA-CU from B. cereus strain ATCC14579. In addition, the compounds were tested on catalytic domains of three human MMPs, which are characterized by different depths of the S1′ binding pocket (MMP-1 (shallow), −2 (intermediate), and −3 (deep)). They were also tested against other important human off-targets, which are involved in gene expression and the processing of TNF-α; these include HDAC-3, -8, TACE (ADAM-17),[33],[34] and COX-1.

ColQ1-CU [1] = target: T3, ColQ1-CU (Bacillus cereus, UniProt B9J3S4); type: biochemical, B. cereus
ColA-CU = ColA-CU (Bacillus cereus, UniProt Q81BJ6); type: biochemical, B. cereus; details: rapid dilution
ColH-PD = ColH-PD (Hathewaya histolytica, UniProt Q46085); type: biochemical, C. histolyticum
ColG-CU = ColG-CU (Hathewaya histolytica, UniProt Q9X721); type: biochemical, C. histolyticum; details: rapid dilution
ColQ1-CU [2] = target: T3, ColQ1-CU; type: binding, B. cereus; details: intact protein HPLC-MS, overnight treatment
in vitro [3] = details: human, HEK293 cells (embryonal kidney)
in vitro [4] = details: dog, MDCK II cells (Madin–Darby canine kidney II)
[5] = tested on: Galleria mellonella larvae; assay: Galleria mellonella larvae treated with compound only in PBS; type: in vivo; details: no bacteria
Experimental: Figure 8 Survival analysis of Galleria mellonella larvae treated with Bacillus cereus AH187 with and without 14 and tiludronate disodium. Each curve represents results of three independent experiments; the statistical difference between groups treated with 100, 50, and 25 μM of compound 14 and B. cereus AH187 and with the group treated only with B. cereus AH187 is p < 0.0001, p = 0.0039, and p = 0.0173, respectively. The statistical difference between groups treated with 100 μM tiludronate disodium and with B. cereus AH187 is p = 0.0032 (log-rank test). The survival rate for the larvae treated with compound 14 and tiludronate disodium in PBS was 100%.
G. mellonella larvae were purchased from a fishing store. Injections were carried out using an LA120 syringe pump (Landgraf Laborsysteme, Langenhagen, Germany) equipped with 1 mL Injekt-F tuberculin syringes (B. Braun, Melsungen, Germany) and Sterican 0.30 × […], 30 G × 1.5 needles (B. Braun). The larvae were divided into five groups depending on their treatment: (i) sterile PBS, (ii) no injection, (iii) only compound, (iv) BC AH187 bacterial suspension, and (v) BC AH187 bacterial suspension with compound. Larvae were incubated at 37 °C for 3 days and inspected twice daily. The total larvae used in all three experiments were 40 larvae per group.

T3 sequence (B9J3S4 94-765 limits assumed): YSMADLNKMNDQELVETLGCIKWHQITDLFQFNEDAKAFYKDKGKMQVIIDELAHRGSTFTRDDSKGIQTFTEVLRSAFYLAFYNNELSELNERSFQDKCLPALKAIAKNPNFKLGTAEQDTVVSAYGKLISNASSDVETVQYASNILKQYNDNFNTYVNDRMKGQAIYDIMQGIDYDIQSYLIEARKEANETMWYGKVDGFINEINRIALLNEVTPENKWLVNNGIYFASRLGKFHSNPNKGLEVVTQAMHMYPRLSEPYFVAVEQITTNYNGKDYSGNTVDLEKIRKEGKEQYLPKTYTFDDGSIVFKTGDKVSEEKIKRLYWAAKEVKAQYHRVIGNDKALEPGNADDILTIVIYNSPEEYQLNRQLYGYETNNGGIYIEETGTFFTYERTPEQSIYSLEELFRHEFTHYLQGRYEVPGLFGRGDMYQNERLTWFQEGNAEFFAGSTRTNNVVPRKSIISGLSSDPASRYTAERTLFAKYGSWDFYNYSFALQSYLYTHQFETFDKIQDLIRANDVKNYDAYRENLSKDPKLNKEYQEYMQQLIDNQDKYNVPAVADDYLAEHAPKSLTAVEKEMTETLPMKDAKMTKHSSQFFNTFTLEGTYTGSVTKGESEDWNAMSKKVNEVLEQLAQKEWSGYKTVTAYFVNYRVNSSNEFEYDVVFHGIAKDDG
Chain of COX-1 (P23219 24-599): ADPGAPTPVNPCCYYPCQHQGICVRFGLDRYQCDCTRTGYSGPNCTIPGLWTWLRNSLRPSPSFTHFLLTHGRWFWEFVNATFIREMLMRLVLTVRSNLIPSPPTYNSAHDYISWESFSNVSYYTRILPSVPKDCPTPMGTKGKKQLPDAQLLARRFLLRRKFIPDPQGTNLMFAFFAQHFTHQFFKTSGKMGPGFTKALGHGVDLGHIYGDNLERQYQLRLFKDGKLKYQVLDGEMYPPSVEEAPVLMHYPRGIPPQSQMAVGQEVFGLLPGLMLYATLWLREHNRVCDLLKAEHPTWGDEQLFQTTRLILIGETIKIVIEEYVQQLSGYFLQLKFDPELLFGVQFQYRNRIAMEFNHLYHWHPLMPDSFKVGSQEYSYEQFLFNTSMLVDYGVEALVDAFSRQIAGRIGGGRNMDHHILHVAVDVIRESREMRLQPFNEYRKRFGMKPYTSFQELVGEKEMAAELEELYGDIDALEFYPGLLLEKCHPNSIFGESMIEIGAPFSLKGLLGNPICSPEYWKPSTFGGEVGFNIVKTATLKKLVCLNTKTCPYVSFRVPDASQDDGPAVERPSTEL
Chain of HDAC-3 (O15379 whole entry): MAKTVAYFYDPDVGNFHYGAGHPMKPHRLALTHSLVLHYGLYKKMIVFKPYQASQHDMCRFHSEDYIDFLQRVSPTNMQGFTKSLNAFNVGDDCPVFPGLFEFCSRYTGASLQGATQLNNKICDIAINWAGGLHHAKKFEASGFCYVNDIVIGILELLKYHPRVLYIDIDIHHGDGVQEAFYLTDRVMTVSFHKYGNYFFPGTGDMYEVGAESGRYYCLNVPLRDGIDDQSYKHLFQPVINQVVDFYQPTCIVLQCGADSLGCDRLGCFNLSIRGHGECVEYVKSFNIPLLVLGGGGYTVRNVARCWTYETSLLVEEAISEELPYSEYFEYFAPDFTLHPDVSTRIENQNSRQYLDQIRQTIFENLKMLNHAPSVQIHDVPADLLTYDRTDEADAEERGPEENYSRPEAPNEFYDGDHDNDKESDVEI
Chain of HDAC-3 (Q9Y618 395-489 partner limits assumed): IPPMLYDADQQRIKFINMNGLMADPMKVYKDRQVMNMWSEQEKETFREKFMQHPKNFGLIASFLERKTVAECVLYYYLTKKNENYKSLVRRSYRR
T1 sequence (P08253 110-444 limits assumed): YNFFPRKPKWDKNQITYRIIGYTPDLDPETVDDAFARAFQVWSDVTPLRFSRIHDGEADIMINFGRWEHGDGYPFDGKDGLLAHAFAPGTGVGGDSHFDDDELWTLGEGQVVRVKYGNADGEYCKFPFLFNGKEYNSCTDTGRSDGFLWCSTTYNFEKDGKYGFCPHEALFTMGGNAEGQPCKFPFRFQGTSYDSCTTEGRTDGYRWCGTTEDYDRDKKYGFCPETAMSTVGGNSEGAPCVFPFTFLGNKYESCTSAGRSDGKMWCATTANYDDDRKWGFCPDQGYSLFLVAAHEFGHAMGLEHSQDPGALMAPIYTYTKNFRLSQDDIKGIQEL
Chain of ColG-CU (Q9X721 111-786): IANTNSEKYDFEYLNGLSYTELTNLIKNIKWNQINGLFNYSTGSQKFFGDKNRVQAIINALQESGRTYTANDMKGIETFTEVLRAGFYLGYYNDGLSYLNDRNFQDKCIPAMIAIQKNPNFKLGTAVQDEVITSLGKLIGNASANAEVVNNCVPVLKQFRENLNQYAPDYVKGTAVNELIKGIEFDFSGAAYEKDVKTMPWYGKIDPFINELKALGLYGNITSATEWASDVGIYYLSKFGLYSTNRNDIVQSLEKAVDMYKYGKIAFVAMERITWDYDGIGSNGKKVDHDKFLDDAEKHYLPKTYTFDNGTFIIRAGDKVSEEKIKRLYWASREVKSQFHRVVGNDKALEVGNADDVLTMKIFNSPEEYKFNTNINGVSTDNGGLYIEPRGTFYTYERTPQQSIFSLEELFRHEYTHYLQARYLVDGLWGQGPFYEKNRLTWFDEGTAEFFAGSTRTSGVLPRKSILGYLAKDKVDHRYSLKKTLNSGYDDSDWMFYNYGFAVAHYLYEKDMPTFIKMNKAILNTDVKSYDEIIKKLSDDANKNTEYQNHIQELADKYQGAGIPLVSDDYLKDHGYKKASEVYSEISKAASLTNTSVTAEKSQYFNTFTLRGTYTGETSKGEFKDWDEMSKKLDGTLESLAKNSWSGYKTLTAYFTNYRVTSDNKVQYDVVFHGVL
Chain of ColA-CU (Q81BJ6 93-764): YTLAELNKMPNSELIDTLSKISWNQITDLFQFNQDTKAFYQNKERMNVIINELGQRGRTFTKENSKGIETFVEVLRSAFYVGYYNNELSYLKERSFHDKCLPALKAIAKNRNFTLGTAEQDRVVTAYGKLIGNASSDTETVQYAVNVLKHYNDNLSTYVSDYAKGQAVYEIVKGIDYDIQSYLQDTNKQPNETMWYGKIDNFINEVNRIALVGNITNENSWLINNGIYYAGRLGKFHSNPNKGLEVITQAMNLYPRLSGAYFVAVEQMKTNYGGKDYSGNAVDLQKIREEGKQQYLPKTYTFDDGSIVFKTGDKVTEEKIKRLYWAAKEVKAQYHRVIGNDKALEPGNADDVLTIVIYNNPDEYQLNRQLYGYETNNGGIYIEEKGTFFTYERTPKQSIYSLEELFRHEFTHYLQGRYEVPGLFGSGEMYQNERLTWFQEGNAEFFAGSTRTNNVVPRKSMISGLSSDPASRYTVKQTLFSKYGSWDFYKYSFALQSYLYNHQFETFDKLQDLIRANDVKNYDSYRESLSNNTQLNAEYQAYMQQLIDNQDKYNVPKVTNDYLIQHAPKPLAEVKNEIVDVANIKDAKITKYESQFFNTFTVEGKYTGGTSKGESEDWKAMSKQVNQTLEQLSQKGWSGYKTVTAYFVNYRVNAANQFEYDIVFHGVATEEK
Chain of ColH-PD (Q46085 331-721 limits assumed): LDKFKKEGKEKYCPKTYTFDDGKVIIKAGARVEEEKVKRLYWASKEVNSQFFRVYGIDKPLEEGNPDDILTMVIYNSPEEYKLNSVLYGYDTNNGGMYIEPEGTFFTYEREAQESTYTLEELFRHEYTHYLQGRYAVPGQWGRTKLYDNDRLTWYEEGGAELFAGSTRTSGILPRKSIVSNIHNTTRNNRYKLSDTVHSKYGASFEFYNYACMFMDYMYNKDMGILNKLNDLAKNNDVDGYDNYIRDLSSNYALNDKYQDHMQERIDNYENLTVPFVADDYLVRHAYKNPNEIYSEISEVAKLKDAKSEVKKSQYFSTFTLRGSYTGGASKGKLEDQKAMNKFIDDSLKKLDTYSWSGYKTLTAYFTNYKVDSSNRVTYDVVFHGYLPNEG

Row | Structure (SMILES) | IC50 (MMP-2) | IC50 (HDAC-3) | IC50 (HDAC-8) | IC50 (COX-1) | Residual activity after rapid dilution (ColQ1-CU [1]; 30 min preincubation at 10-fold IC50, 100-fold dilution) | Reversibility of inhibition, ColQ1-CU (ColQ1-CU [1]; rapid dilution) | Reversibility of inhibition, ColA-CU (ColA-CU) | Reversibility of inhibition, ColH (ColH-PD) | Reversibility of inhibition, ColG (ColG-CU) | Covalent modification of ColQ1-CU (ColQ1-CU [2]) | IC50 (in vitro [3]) | IC50 (in vitro [4]) | Survival rate of larvae treated with compound in PBS [5]
1 | O=P(O)(O)c1nc2cc(Cl)c(Cl)cc2nc1P(=O)(O)O [Compound 13, (6,7-Dichloroquinoxaline-2,3-diyl)bis(phosphonic acid)] | 79 ± 2 µM | > 100 µM | > 100 µM | > 100 µM | less than 9% | very slowly dissociating reversible binder | only a minimal inhibition | reversed compared to ColA | rapidly reversible inhibitors | No molecular masses displayed a mass shift indicating a covalently bound inhibitor; also recorded: did not result in a covalent modification | 100 µM | > 200 µM | –
2 | O=C(Nc1ccc(Cl)c(Cl)c1)c1ccc2nc(P(=O)(O)O)c(P(=O)(O)O)nc2c1 [Compound 14, (6-((3,4-Dichlorophenyl)carbamoyl)quinoxaline-2,3-diyl)bis(phosphonic acid)] | > 100 µM | > 100 µM | > 100 µM | > 100 µM | – | – | – | – | – | – | > 100 µM | > 100 µM | 100%

— PMC9574867, “Discovery and Characterization of Synthesized and FDA-Approved Inhibitors of Clostridial and Bacillary Collagenases” (Journal of Medicinal Chemistry, 2022)
